Source: patent US20250288570A1, “TREATMENT OF NEUROLOGICAL DISORDERS” (Praxis Precision Medicines, Inc., priority 2022, published 2025)

Columns and labels:
[1] = system: scPTZ-induced seizures in CD-1 mice; experiment: Subcutaneous pentylenetetrazole (scPTZ) induced seizure test; type: in vivo, mouse
Description: The subcutaneous pentylenetetrazole (scPTZ) test is a validated model for evaluating the anti-seizure potential of compounds. The positive control valproate is an approved anti-seizure medicine (ASM). This study evaluated the efficacy of Compound 1 to attenuate scPTZ-induced seizures in wildtype CD-1 mice. Doses of Compound 1 used were 1 mg/kg, 3 mg/kg, 6 mg/kg and 10 mg/kg administered orally. Valproate (600 mg/kg, administered intraperitoneally) was used as a positive control as it has a broad spectrum of anticonvulsant activity.
Male CD-1 mice (Charles River Laboratories, St. Constant, Quebec, Canada) were used for the study. Body weights at the time the experiment was carried out were between 27 and 39 grams. The mice were group-housed in polycarbonate cages according to standard operating procedures. Animals were maintained on a 12 hour light/12 hour dark cycle, with all experimental activities occurring during the light phase. Food and water were available ad libitum. […]
Immediately prior to the administration of PTZ, a brief neurological assessment was performed. Each animal was visually assessed and received a score from 0 to 3 according to the following scoring system: neurological score of 0 corresponds to a normal status; neurological score of 1 corresponds to a modest decrease in spontaneous activity; neurological score of 2 corresponds to a marked decrease in spontaneous activity; and neurological score of 3 corresponds to loss of righting reflex.
PTZ (85 mg/kg, 10 mL/kg) was administered as a subcutaneous (s.c.) injection. […] The latency to generalized clonic seizure was recorded. Seizures were also scored using a seizure scale. Mice were scored with the following stages: 0) no seizure activity, 1) myoclonic jerks with “flat body posture”, 2) generalized clonus with loss of posture lasting ˜2 s, 3) generalized clonus with loss of posture lasting ˜10 s or 4) tonic hindlimb extension. Seizure scores were used as a qualitative measure to assess seizure incidence and were not used as a quantitative measure of pharmacological activity. […]

[2] = system: multiple NaV isoforms and orthologs; experiment: ATX-II induced persistent INa of multiple NaV isoforms and orthologs; type: cell-based
[3] = Phase 1 clinical trial, single ascending dose (Part A), healthy volunteers; type: in vivo, human
Description: This is a trial to assess the safety, tolerability, pharmacokinetics (PK), and pharmacodynamics (PD) of Compound 1 in healthy participants aged 18 to 55 years (inclusive). The trial is initially comprised of 2 parts, with 1 additional optional part, as follows: • Part A is randomized, double-blinded, and placebo-controlled. Part A is designed to investigate the safety, PK, and PD of single ascending doses of Compound 1. • Part B is randomized, double-blinded, and placebo-controlled. Part B is designed to investigate the safety, PK, and PD of multiple ascending doses (selected based on the results from Part A) of Compound 1. • Part C (optional) is a randomized, open-label, crossover design food effect evaluation to investigate the PK of a single dose (selected based on the results from Part A) of Compound 1 in the fasted and fed state.
Safety and tolerability assessments for Parts A, B, and C will include vital signs, 12-lead ECGs, physical examinations, clinical laboratory tests, and the C-SSRS (for Part B).
Healthy participants will be enrolled to receive single ascending oral doses of Compound 1 or placebo on Day 1. FIG. 14A is an illustration of the dosing scheme for Part A (single ascending dose) of the trial. Dose escalation in Part A will initially be conducted in up to a total of 4 planned cohorts (Cohorts A1 to A4). Following completion of Cohort A4, up to an additional 3 escalation cohorts may be added. […] Doses may be adjusted upward or downward based on safety, tolerability, and PK data from the preceding cohorts. Cohorts after A4 will be numbered sequentially (A5, A6, etc.). […]
Compound 1 will be administered to Cohort A1 participants at the starting dose of 5 mg. […] The safety and tolerability of each sentinel participant will be monitored until Day 2 and will be reviewed prior to dosing the remainder of participants in the cohort. […]
Cohorts will be dosed in an escalating order. […] If the current dose level is determined to be safe and tolerated by the SRC, the next dose cohort will be randomized to receive the selected dose of active Compound 1 or placebo. […]

For `CCOC(F)(F)c1nnc2ccc(-c3cnc(OCC(F)(F)F)c(F)c3)cn12` [Compound 1], the “spontaneous activity (in words)” value ([1]; 10 mg/kg) was “modest reduction in spontaneous activity was observed in a single mouse”, the “protection in PTZ acute seizure model (in words)” value ([1]; 1-10 mg/kg p.o.) was “protected from generalized clonus” and the “neurological scores (in words)” value ([1]; dose range tested) was “Neurological scores for all but one mouse treated with Compound 1 were normal”. For the same compound, the “inhibition of persistent INa at other isoforms and orthologs (in words)” value [2] was “inhibits ATX-II induced persistent INa expressed by multiple NaV isoforms and orthologs”, the “safety and tolerability (in words)” value ([3]; healthy participants, single oral doses up to 45 mg) was “safe and generally well tolerated” and the “most frequently reported TEAEs” value ([3]; single doses up to 45 mg) was “headache and fatigue”. The “severity of treatment-emergent adverse events” value ([3]; single doses up to 45 mg) was “mild in severity”.
